Key:
[1] = test system: thiol, disulfide or hyperoxidized forms of AhpC (wild type or C165S); experiment: Control reactions with other redox forms of AhpC (ESI-MS adduct detection); type: biochemical, Salmonella typhimurium; conditions: for reaction with protein amine groups: reduced or oxidized wild type or reduced C165S AhpC; for reactivity of thiol, disulfide or hyperoxidized forms of AhpC (ESI-MS-detectable adduct formation): wild type or C165S
Source text: (§1) Reactivity of new compounds toward cysteine sulfenic acids in proteins. To test for the reactivity of 6 and 7 toward protein sulfenic acids, a mutant, cysteine-dependent peroxidase enzyme was used in which the oxidized, sulfenic acid form of the cysteinyl redox center is stabilized, yet accessible (the C165S mutant of AhpC from Salmonella typhimurium, a peroxiredoxin) (3, 9, 14).
The thiol group of the reduced protein and the oxidized, disulfide-bonded form of wild type AhpC were also unreactive toward these compounds, as confirmed by electrospray ionization mass spectrometry (ESI-MS) of the ammonium bicarbonate-washed
(§2) Specificity of fluorescent, cyclohexadione-derived regents toward sulfenic acids in proteins. The known reactivity of the nucleophilic center of dimedone is toward cysteine sulfenic acids and aldehydes (15, 16). […] To test for general cross-reactivity of these reagents with other oxidized sulfur-containing functional groups, we tested the reactivity of dimedone, as a model reagent, with a S-nitrosothiol and two sulfoxides.
(§3) Labeling of sulfenic acid-containing C165S AhpC for spectral and mass spectrometric analysis. The pure, oxidized enzyme (32 μL, 6 nmol each) from the anaerobic cuvette was added to argon-flushed 500 μL Eppendorf tubes containing the compound of choice (either dimethylsulfoxide alone, or dimethylsulfoxide into which dimedone, 1,3-cyclohexanedione, 6 or 7 had been dissolved) to give a final concentration of 5 mM for the added reagent in final volumes of 50 μL, and the tubes were flushed again with argon before closing. Other redox forms of C165S AhpC or the wild-type enzyme were also tested for reactivity with one or more of these four compounds. Approximate 100 mM stock solutions of 6 or 7 in dimethylsulfoxide were standardized using expected extinction coefficients of 5,700 or 25,000 M^−1 cm^−1, respectively, for the esterified isatoic acid conjugate or the methoxycoumarin conjugate in methanol (11). Samples were incubated at room temperature for 60 min, then transferred to Apollo ultrafiltration devices (30K cutoff, Orbital Biosciences, Topsfield, Mass.), washed with 5.5 mL 10 mM ammonium bicarbonate and reconcentrated to about 50 μL, for a total of four washes (>10^8-fold dilution of the initial small molecule components).

[2] = biological target: T1, sulfenic acid form of C165S AhpC (Salmonella typhimurium, UniProt P0A251, C166S); experiment: Labeling of sulfenic acid-containing C165S AhpC, adducts analysed by ESI-MS; type: biochemical; conditions: for covalent adduct formation with the sulfenic acid form of the peroxidase / Observed increase in mass of product compared with R—SH form: 5 mM reagent, ESI-MS; for covalent adduct formation with the sulfenic acid form of the peroxidase: aqueous neutral pH buffer; for labeling of the protein when 1:1 mixtures of 6 and 7 are added: ESI-MS of intact proteins; for Observed increase in mass of product compared with R—SH form: 60 min, room temperature
T1 construct: made in house
Procedure: as §1
[drawing 11] washed proteins following incubations with the labeling agents (FIG. 1 and data not shown). As illustrated in FIG. 1 and summarized in Table 1, mass spectrometry results were completely consistent with the expected reactivity and products generated with the sulfenic acid-containing protein using dimedone, 1,3-cyclohexadione and our two new labeling agents (6 and 7). […] Under the conditions used, the sulfenic acid form of the protein either reacts with the reagent or is further oxidized during the workup or analysis of the sample, and is therefore not observed. In a subsequent experiment
Generation of pure, sulfenic acid-containing C165S AhpC. The C165S mutant of AhpC was expressed in bacteria and purified in the presence of 5 mM 1,4-dithiothreitol (added to all buffers) essentially as described previously (9). Purification of wild type AhpC was also carried out as previously described (10). For generation of the sulfenic acid form of C165S AhpC, thawed enzyme in 25 mM phosphate buffer at pH 7, containing 1 mM EDTA, was washed free of the dithiothreitol and transferred into fresh buffer using a PD-10 column (Amersham Biosciences), and pooled fractions were transferred to an anerobic cuvette. The protein solution (160 nmol in 0.60 mL) was made anaerobic by repeated cycles of argon and vacuum over about 30 min, then rapidly titrated with 11 mM hydrogen peroxide to give a maximal absorbance signal at ˜367 nm for the sulfenate anion as described previously (3, 4). In subsequent experiments, optimal sulfenic acid formation was observed by adding and mixing the hydrogen peroxide much more slowly (additions of about 0.05 eq and thorough mixing every ˜1 min) and quantitating the sulfenic acid formed using a freshly-prepared 2-nitro-5-thiobenzoate (TNB) solution (0.28 mL) and a 60 μL aliquot of the protein removed anaerobically from the cuvette (3, 4). Using this method, ˜73% of the protein was converted to the sulfenic acid form after addition of 1.08 eq of hydrogen peroxide. Protein was kept in the anaerobic cuvette at room temperature for several hours before conducting experiments with no loss in sulfenic acid content.
as §3
Mass spectrometric and spectral analyses of adducts with the sulfenic acid-containing form of C165S AhpC. […]

[3] = Control reaction with aldehyde
[4] = Control reaction with amine
[5] = Cross-reactivity with sulfoxide (NMR, spectroscopic and chemical isolation); conditions: aqueous solution
Source text: as §2

[6] = Cross-reactivity with S-nitrosothiol (absorbance spectroscopy); conditions: one hour, room temperature
Source text: as §2

[7] = cited from earlier work

T1 sequence (P0A251 whole entry C166S): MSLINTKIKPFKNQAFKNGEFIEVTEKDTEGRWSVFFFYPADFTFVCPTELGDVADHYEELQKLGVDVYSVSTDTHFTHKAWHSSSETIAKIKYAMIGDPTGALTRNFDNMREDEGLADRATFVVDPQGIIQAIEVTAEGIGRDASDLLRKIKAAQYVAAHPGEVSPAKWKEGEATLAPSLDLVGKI

| SMILES | reaction with protein amine groups [1] | reactivity of thiol, disulfide or hyperoxidized forms of AhpC (ESI-MS-detectable adduct formation) [1] | covalent adduct formation with the sulfenic acid form of the peroxidase [2] | labeling of the protein when 1:1 mixtures of 6 and 7 are added [2] | Observed increase in mass of product compared with R—SH form [2] | reaction with butyraldehyde ([3]; in the presence of piperidine, 50° C., aqueous ethanol) | reaction with butyraldehyde ([3]; room temperature, absence of base) | reaction with benzylamine ([4]; aqueous ethanol) | reaction with benzylamine ([4]; organic solvent) | reaction with dimethyl sulfoxide [5] | reaction with methionine sulfoxide [5] | reaction with S-nitrosoglutathione [6] | pka of active methylene group [7] | reactivity toward cysteine sulfenic acids relative to dimedone [2] |
| --- | --- | --- | --- | --- | --- | --- | --- | --- | --- | --- | --- | --- | --- | --- |
| COc1ccc2cc(NC(=O)OCCCC3CCC(=O)CC3=O)c(=O)oc2c1 (stereo not shown) [compound 7, 3-(2,4-Dioxocyclohexyl)propyl 7-methoxy-2-oxo-2H-chromen-3-ylcarbamate] | do not react | lack of reactivity | gave covalent adducts | approximately equal labeling | 384.5 amu | – | – | – | – | – | – | – | – | – |
| CC1(C)CC(=O)CC(=O)C1 [dimedone, 5,5-dimethyl-1,3-cyclohexanedione] | – | lack of reactivity | – | – | 137.3 amu | reacts | fails to react | no reaction occurs | condenses with benzylamine to form an imine | does not react | does not react | fails to react | 5.15 | – |
| CNc1ccccc1C(=O)OCCCC1CCC(=O)CC1=O (stereo not shown) [compound 6, 3-(2,4-Dioxocyclohexyl)propyl 2-(methylamino)benzoate] | do not react | lack of reactivity | gave covalent adducts | approximately equal labeling | 300.7 amu | – | – | – | – | – | – | – | – | – |
| O=C1CCCC(=O)C1 [1,3-cyclohexadione, 1,3-cyclohexanedione] | – | – | – | – | 109.2 amu | – | – | – | – | – | – | – | – | at least equivalent reactivity |
